Blank lines part the entries; values can stand above or below the compound they belong to.
How the values were obtained:
[1] = Accelerated stability study of calcium salt crystals (Example 7); type: physicochemical
From the text: One challenge in pharmaceutical drug development relates to discovering a stable, crystalline form of a drug having a reasonably high melting point. The challenge of the present invention was that crystals of the free acid of Compound 1 could not be obtained. Furthermore, many crystal screens failed, with the exception of two-arginine and calcium crystals of (2S,4R)-5-(5′-chloro-2′-fluorobiphenyl-4-yl)-4-(ethoxyoxalylamino)-2-hydroxymethyl-2-methylpentanoic acid were obtained. However, the arginine crystals (see Example 1) were deliquescent at ambient conditions and were difficult to develop further. On the other hand, the calcium crystals were stable and melted around 239° C. For that reason, an accelerated stability study of Compound 1′ was conducted at the temperatures and % relative humidity (RH) reported below.

[2] = Dynamic moisture sorption assessment; type: physicochemical
Experimental: In one embodiment, crystalline form 1′ is characterized by the DMS isotherm in FIG. 4. This form is a non-hygroscopic solid. The total moisture gain observed is less than 1% by weight when exposed to between 5% and 90% relative humidity. No significant hysteresis is found between consecutive sorption-desorption cycles.
DMS measurements were performed using a VTI atmospheric microbalance, SGA-100 system (VTI Corp., Hialeah, Fla. 33016). A weighed sample was used and the humidity was lowest possible value (close to 0% relative humidity) at the start of the analysis. The DMS analysis consisted of a scan rate of 5% relative humidity/step over the full humidity range of 5-90%. The DMS run was performed isothermally at 25° C.

[3] = target: NEP (Homo sapiens, UniProt P08473); assay: In vitro enzyme inhibition assay, human NEP (Assay 1); type: biochemical; design: purchased R&D Systems 1182-ZN; settings: read-out: human pKi (converted)
Experimental: (§1) The inhibitory activities at human and rat neprilysin (EC 3.4.24.11; NEP) were determined using in vitro assays as described below.
Recombinant human NEP was obtained commercially (R&D Systems, Minneapolis, Minn., catalog number 1182-ZN). The fluorogenic peptide substrate Mca-D-Arg-Arg-Leu-Dap-(Dnp)-OH (Medeiros et al. (1997) Braz. J. Med. Biol. Res. 30:1157-62; Anaspec, San Jose, Calif.) was used.
(§2) The assays were performed in 384-well white opaque plates at 37° C. using the fluorogenic peptide substrate at a concentration of 10 μM in Assay Buffer (50 mM HEPES, pH 7.5, 100 mM NaCl, 0.01% polyethylene glycol sorbitan monolaurate (Tween-20), 10 μM ZnSO4).
(§3) Test compounds were assayed over the range of concentrations from 10 μM to 20 pM. Test compounds were added to the enzyme and incubated for 30 minute at 37° C. prior to initiating the reaction by the addition of substrate. Reactions were terminated after 20 minutes of incubation at 37° C. by the addition of glacial acetic acid to a final concentration of 3.6% (v/v).
(§4) Plates were read on a fluorometer with excitation and emission wavelengths set to 320 nm and 405 nm, respectively. Inhibition constants were obtained by nonlinear regression of the data using the equation (GraphPad Software, Inc., San Diego, Calif.): v=v0/[1+(I/K′)] where v is the reaction rate, v0 is the uninhibited reaction rate, I is the inhibitor concentration and K′ is the apparent inhibition constant.

[4] = target: T1, Rat NEP (Rattus norvegicus, UniProt P07861); assay: In vitro enzyme inhibition assay, rat NEP (Assay 1); type: biochemical; settings: NEP from rat kidneys; read-out: rat pKi (converted)
T1 construct: leaving a viscous oily precipitate containing the enriched membrane fraction; from tissue; host or cells: kidneys of adult Sprague Dawley rats (Triton X-114 enriched membrane fraction)
T1 sequence (P07861 1-750): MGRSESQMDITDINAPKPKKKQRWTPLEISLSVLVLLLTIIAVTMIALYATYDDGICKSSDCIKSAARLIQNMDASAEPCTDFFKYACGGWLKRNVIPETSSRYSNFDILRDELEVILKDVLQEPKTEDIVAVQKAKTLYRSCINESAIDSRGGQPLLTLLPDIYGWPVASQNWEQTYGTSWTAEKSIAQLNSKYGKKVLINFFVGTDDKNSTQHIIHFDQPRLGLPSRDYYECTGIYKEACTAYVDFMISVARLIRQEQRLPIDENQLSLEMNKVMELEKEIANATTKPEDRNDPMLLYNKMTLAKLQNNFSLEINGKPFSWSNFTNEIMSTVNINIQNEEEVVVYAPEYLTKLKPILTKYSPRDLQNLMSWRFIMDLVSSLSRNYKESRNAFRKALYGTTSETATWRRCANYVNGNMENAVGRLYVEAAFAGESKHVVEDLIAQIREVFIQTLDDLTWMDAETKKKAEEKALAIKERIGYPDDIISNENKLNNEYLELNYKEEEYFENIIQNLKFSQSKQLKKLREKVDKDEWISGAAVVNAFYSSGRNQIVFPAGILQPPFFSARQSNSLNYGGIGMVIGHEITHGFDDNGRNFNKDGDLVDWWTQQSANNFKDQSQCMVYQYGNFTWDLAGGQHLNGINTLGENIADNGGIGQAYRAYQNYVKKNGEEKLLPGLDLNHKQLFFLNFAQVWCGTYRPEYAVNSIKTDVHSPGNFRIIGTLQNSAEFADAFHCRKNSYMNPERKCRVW
Experimental: as §1
Rat NEP was prepared from the kidneys of adult Sprague Dawley rats. Whole kidneys were washed in cold phosphate buffered saline (PBS) and brought up in ice-cold lysis buffer (1% Triton X-114, 150 mM NaCl, 50 mM tris(hydroxymethyl) aminomethane (Tris) pH 7.5; Bordier (1981) J. Biol. Chem. 256: 1604-1607) in a ratio of 5 mL of buffer for every gram of kidney. Samples were homogenized on ice using a polytron hand held tissue grinder. Homogenates were centrifuged at 1000×g in a swinging bucket rotor for 5 minutes at 3° C. The pellet was resuspended in 20 mL of ice cold lysis buffer and incubated on ice for 30 minutes. Samples (15-20 mL) were then layered onto 25 mL of ice-cold cushion buffer (6% w/v sucrose, 50 mM pH 7.5 Tris, 150 mM NaCl, 0.06%, Triton X-114), heated to 37° C. for 3-5 minutes and centrifuged at 1000×g in a swinging bucket rotor at room temperature for 3 minutes. The two upper layers were aspirated off, leaving a viscous oily precipitate containing the enriched membrane fraction. Glycerol was added to a concentration of 50% and samples were stored at −20° C. Protein concentrations were quantitated using a BCA detection system with bovine serum albumin (BSA) as a standard.
as §2, §3, §4

[5] = IV/PO pharmacokinetic study in rats (Assay 3); type: in vivo; settings: male, Sprague-Dawley, plasma, rat, read-out: AUClast Mean
Experimental: (§5) Each rat or dog pharmacokinetic study began with formulation of the test compound. Appropriate masses of each test compound were added into a volume of vehicle (e.g. 5% sodium bicarbonate, 5% dextrose in water) such that the final concentration of each compound was appropriate to be dosed at 2 mL/kg. Although a homogenous suspension were acceptable for oral dosing, intravenous dosing solutions were sterile-filtered (0.2 μm) prior to dosing to ensure no particulates were administered.
In the rat study, pre-cannulated male Sprague-Dawley rats (3 per route) between 8 and 10 weeks of age were obtained from Harlan Laboratories (Indianapolis, Ind.). Rats received either a single oral gavage or a single intravenous (via lateral tail vein) dose of the dosing solution. The final dose was typically 0.5-3 mg/kg. Serial blood samples were harvested via the cannula implanted in the jugular vein at 3 minutes, 15 minutes, 30 minutes, 1 hour, 2 hours, 4 hours, 6 hours, and 24 hours post-dose. Sampling was performed either manually or using automated blood samplers. Samples were collected into microtainer tubes containing sodium fluoride, potassium oxalate and paraoxon, and were processed to plasma by refrigerated centrifugation.
(§6) Plasma samples were extracted with 3 volumes of MeCN containing a suitable internal standard. Extracts were reconstituted into 3 volumes of water containing 1% formic acid, and analyzed via HPLC-coupled MS/MS. Plasma concentration-time data were analyzed using the Phoenix software (Pharsight Corp., St. Louis, Mo.) to calculate pharmacokinetic parameters.

[6] = IV/PO pharmacokinetic study in dogs (Assay 3); type: in vivo; settings: male, beagle, plasma, dog, read-out: AUClast Mean
Experimental: as §5
In the dog study, male beagle dogs (3 per route) housed at Agilux Laboratories (Worcester, Mass.) and weighing between 7-12 kg received either a single oral gavage or a single intravenous (via indwelling catheter) dose of the dosing solution. The final dose was typically 0.1-2 mg/kg. Serial blood samples were harvested via direct venipuncture at 3 minutes, 15 minutes, 30 minutes, 1 hour, 2 hours, 4 hours, 6 hours, 8 hours, 12 hours, and 24 hours post-dose. All samples were collected manually into microtainer tubes containing sodium fluoride, potassium oxalate and paraoxon, and were processed to plasma by refrigerated centrifugation.
as §6

[7] = IV, analyte = compound dosed (active metabolite)
[8] = PO, analyte = compound dosed (prodrug)

NEP, sequence (P08473 52-750 limits assumed): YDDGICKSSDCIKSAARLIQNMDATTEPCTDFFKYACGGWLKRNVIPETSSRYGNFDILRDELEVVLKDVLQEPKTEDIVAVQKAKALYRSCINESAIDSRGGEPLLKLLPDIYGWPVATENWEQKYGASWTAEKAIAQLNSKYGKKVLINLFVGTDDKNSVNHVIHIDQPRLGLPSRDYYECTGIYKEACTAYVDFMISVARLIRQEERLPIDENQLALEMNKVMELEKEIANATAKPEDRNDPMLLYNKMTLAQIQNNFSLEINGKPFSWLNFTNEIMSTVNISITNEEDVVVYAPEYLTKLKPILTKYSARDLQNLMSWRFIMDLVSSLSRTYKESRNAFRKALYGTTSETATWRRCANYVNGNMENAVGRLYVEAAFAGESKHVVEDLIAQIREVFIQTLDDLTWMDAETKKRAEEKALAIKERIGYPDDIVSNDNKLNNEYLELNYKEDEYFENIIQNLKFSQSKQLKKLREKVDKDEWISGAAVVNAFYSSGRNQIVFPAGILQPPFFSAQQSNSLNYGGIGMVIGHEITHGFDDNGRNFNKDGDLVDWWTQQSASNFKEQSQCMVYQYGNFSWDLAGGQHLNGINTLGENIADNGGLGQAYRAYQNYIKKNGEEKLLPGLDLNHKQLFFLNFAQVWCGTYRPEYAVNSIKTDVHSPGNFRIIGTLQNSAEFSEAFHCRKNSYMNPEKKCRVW

- Ki [3]: 0.2 nM
- Ki [4]: 0.158 nM
- AUC(0-t) [5, 7]: 15000 ng·h/mL
- AUC(0-t) [6, 7]: 1280 ng·h/mL
SMILES: O=C(O)C(=O)N[C@H](Cc1ccc(-c2cc(Cl)ccc2F)cc1)C[C@@H](O)C(=O)O [Comparison Compound C6, (2R,4R)-5-(5′-Chloro-T-fluorobiphenyl-4-yl)-2-hydroxy-4-(oxalylamino)pentanoic Acid]

- Ki [3]: 15.8 nM
- Ki [4]: 7.94 nM
- AUC(0-t) [5, 8]: 40 ng·h/mL
- AUC(0-t) [6, 8]: 480 ng·h/mL
SMILES: CCOC(=O)[C@H](O)C[C@@H](Cc1ccc(-c2cc(Cl)ccc2F)cc1)NC(=O)C(=O)O [Comparison Compound C4, (2R,4R)-5-(5′-Chloro-2′-fluorobiphenyl-4-yl)-2-hydroxy-4-(oxalylamino)pentanoic Acid Ethyl Ester]

Further lines, the compound ahead of its results:

SMILES: CCOC(=O)C(=O)N[C@H](Cc1ccc(-c2cc(Cl)ccc2F)cc1)C[C@@](C)(CO)C(=O)O [Compound 1′, Calcium (2S,4R)-5-(5′-Chloro-2′-fluoro-[1,1′-biphenyl]-4-yl)-4-(2-ethoxy-2-oxoacetamido)-2-(hydroxymethyl)-2-methylpentanoate]
- Assay ([1]; 5° C., 0 months): 95.0 % (w/w)
- Purity ([1]; 5° C., 0 months): 97.3 % (a/a)
- Assay ([1]; 5° C., 2 months): 93.4 % (w/w)
- Purity ([1]; 5° C., 2 months): 97.6 % (a/a)
- Assay ([1]; 5° C., 3 months): 92.4 % (w/w)
- Purity ([1]; 5° C., 3 months): 97.5 % (a/a)
- Assay ([1]; 25° C., 60% RH, 0 months): 95.0 % (w/w)
- Purity ([1]; 25° C., 60% RH, 0 months): 97.3 % (a/a)
- Assay ([1]; 25° C., 60% RH, 2 months): 94.4 % (w/w)
- Purity ([1]; 25° C., 60% RH, 2 months): 97.3 % (a/a)
- Assay ([1]; 25° C., 60% RH, 3 months): 92.9 % (w/w)
- Purity ([1]; 25° C., 60% RH, 3 months): 96.8 % (a/a)
- Assay ([1]; 40° C., 75% RH, 0 months): 95.0 % (w/w)
- Purity ([1]; 40° C., 75% RH, 0 months): 97.3 % (a/a)
- Assay ([1]; 40° C., 75% RH, 1 month): 95.5 % (w/w)
- Purity ([1]; 40° C., 75% RH, 1 month): 95.9 % (a/a)
- Assay ([1]; 40° C., 75% RH, 2 months): 92.1 % (w/w)
- Purity ([1]; 40° C., 75% RH, 2 months): 95.3 % (a/a)
- Assay ([1]; 40° C., 75% RH, 3 months): 92.1 % (w/w)
- Purity ([1]; 40° C., 75% RH, 3 months): 93.9 % (a/a)
- stability (in words) ([1]; up to at least three months at the temperatures and relative humidity tested): relatively stable
- hygroscopicity (in words) ([2]; DMS isotherm): non-hygroscopic
- total moisture gain ([2]; between 5% and 90% relative humidity, 25° C.): less than 1 % by weight

SMILES: CCOC(=O)C(=O)N[C@H](Cc1ccc(-c2cc(Cl)ccc2F)cc1)C[C@@H](O)C(=O)O [Comparison Compound C5, (2R,4R)-5-(5′-Chloro-T-fluorobiphenyl-4-yl)-4-(ethoxyoxalylamino)-2-hydroxypentanoic Acid]
- Ki [3]: 0.2 nM
- Ki [4]: 0.2 nM
- AUC(0-t) [6, 8]: 29 ng·h/mL

SMILES: CCOC(=O)[C@](C)(CO)C[C@@H](Cc1ccc(-c2cc(Cl)ccc2F)cc1)NC(=O)C(=O)O [Comparison Compound C3, (2S,4R)-5-(5′-Chloro-2′-fluorobiphenyl-4-yl)-2-hydroxymethyl-2-methyl-4-(oxalylamino)pentanoic Acid Ethyl Ester]
- Ki [3]: 3980 nM
- Ki [4]: 2000 nM
- AUC(0-t) [5, 8]: 560 ng·h/mL
- AUC(0-t) [6, 8]: 950 ng·h/mL
